The results in this text go back to US20250066360A1, “PYRIDINE-CONTAINING POLYCYCLIC DERIVATIVE, AND PREPARATION METHOD THEREFOR AND USE THEREOF” (SHANGHAI HANSOH BIOMEDICAL CO., LTD., priority 2022, published 2025).

The target in one test is T1, p38α/MK2 (Homo sapiens, UniProt P49137+Q16539).
T1 construct: purchased R & D systems (p38 alpha); Thermo (MK2) 5477-KS-010; PV3316
Kind of test: Inhibition of p38α/MK2 enzyme activity (TR-FRET, ULight-CREBtide). The class given is biochemical. Conditions: for IC50: 0.06 nM p38a, 1.2 nM MK2, 25 μM ATP, read-out: p38/MK2 IC50; for Selectivity ratio (p38 IC50 / p38/MK2 IC50): selectivity ratio p38 IC50 over p38/MK2 IC50. The method, then:
(§1) 50 nM ULight-CREBtide and 25 μM ATP (ATP Solution) were added, and the mixture was reacted at room temperature for 1.5 hours. An equal volume of a detection and termination mixed solution (1×LANCE detection buffer containing 20 mM EDTA and 2 nM Europium-anti-phospho-CREB) was added, the mixture was mixed until uniform and centrifuged, a plate sealing film was attached, and a reaction was performed at room temperature for 1 hour. TR-FRET program of the EnVision instrument was used to read the plate, and the fluorescence value of each well was detected at 665 nm/615 nm.
(§2) Calculation was performed on the raw data (665 nm/615 nm reading ratio) according to the following formula to obtain the inhibition rate. Inhibition rate %=[(mean value in positive control well−value in sample well)/(mean value in positive control well−mean value in negative control well)]×100, wherein the positive control well was a reaction well without a compound […], and the negative control well was a reaction wells without an enzyme.
(§3) Log(inhibitor) vs. response−Variable slope (four parameters) in GraphPad Prism 6 was used for fitting equation analysis of the compound concentration and the corresponding inhibition rate, and the curve was fitted to obtain the IC50 value of the compound.
(§4) The fitting calculation equation was Y=Bottom+(Top−Bottom)/(1+10^((Log IC50−X)*HillSlope)).
Background: TR-FRET usually uses a lanthanide donor and a delayed reading to cut background.

Test [1] has as its target T2, p38a (Active p38 alpha Protein) (Homo sapiens, UniProt Q16539).
T2 construct: purchased R & D systems 5477-KS-010
Kind of test: Inhibition of p38 enzyme activity (TR-FRET, ULight-MBP). The class given is biochemical. Conditions: 3 nM p38a, 50 μM ATP. The protocol: as §1, with “Experimental method for determining the p38 enzyme activity: 3 nM p38a (Active p38 alpha Protein) and compounds diluted in a certain concentration gradient were incubated in 1× enzyme reaction buffer (50 mM HEPES pH 7.5, 1 mM EGTA, 10 mM MgCl2, 2 mM DTT, 0.01% Tween-20) for 1 hour. 50” for “50”, “ULight-MBP” for “ULight-CREBtide”, “50” for “25”, “(ATP 10 mM” for “(ATP”, “Europium-anti-P-MBP)” for “Europium-anti-phospho-CREB)”
as §2, §3, §4

A further test relates to p-Hsp27 in U937 cells. Briefly: Inhibition of p-Hsp27 in LPS-stimulated U937 cells (ELISA). The test is classed as cell-based. Conditions: Homo sapiens, U-937; PMA-differentiated U937, 10 ng/ml LPS 0.5 hours; read-out: U937 cell activity test p-HSP27 IC50. The protocol:
U937 cells were treated with 20 ng/ml PMA for differentiation overnight, and after replacement with a fresh culture medium, the U937 cells were rested overnight. After differentiation, the U937 cell were digested and counted, and 25,000 cells per well were seeded in a 96-well plate until the cells adhered to the wall. A compound concentration gradient was prepared, the cells were pretreated with the compound for 1 hour (the highest final concentration of the compound was 1 μM, diluted in 3-fold concentration gradient), and 10 ng/ml LPS (Lipopolysaccharides from Escherichia coli O111:B4) was added for stimulation for 0.5 hours. After the cells were washed with PBS, the cells were lysed with a lysis solution. p-Hsp27 in the cell lysate was detected by using Phospho-HSP27 (S78/S82) DuoSet IC ELISA kit. For specific steps, reference could be made to the standard steps provided by the kit manufacturer.
Calculation of p-Hsp27 inhibition rate: Inhibition rate %=[(mean value of p-Hsp27 in positive control well−mean value of p-Hsp27 in sample well)/(mean value of p-Hsp27 in positive control well−mean value of p-Hsp27 in negative control well)]×100%, wherein the positive control well was a well without a compound (DMSO-treated well), and the negative control well was a well without LPS stimulation.
Dose response curve fitting: Log(inhibitor) vs. response−Variable slope (four parameters) in GraphPad Prism 6 was used for fitting equation analysis of the compound concentration and the corresponding inhibition rate, and the curve was fitted to obtain the IC50 value of the compound.
as §4
(In general: An ELISA detects its analyte on a solid surface through an enzyme-linked reagent.)

A further test deals with TNF-α in U937 cells. Kind of test: Inhibition of the expression level of TNF-α in LPS-stimulated U937 cells (ELISA). The class given is cell-based. Conditions: Homo sapiens, U-937; PMA-differentiated U937, 10 ng/ml LPS 4 hours; read-out: U937 cell activity test TNF-α IC50. The protocol: U937 cells were treated with 20 ng/ml PMA for differentiation overnight, and after replacement with a fresh culture medium, the U937 cells were rested overnight. After differentiation, the U937 cells were digested and counted, and 50,000 cells per well were seeded in a 96-well plate until the cells adhered to the wall. A compound concentration gradient was prepared, the cells were pretreated with the compound for 1 hour (the highest final concentration of the compound was 1 μM, diluted in 3-fold concentration gradient), and 10 ng/ml LPS (Lipopolysaccharides from Escherichia coli O111:B4) was added for stimulation for 4 hours. Thereafter, the culture supernatant was collected by centrifugation and used for subsequent ELISA to detect the concentration of TNF-α in the supernatant. The concentration of TNF-α was detected according to the standard steps provided by the ELISA kit manufacturer.
A standard curve was plotted by a linear regression method from a TNF-α standard, and the concentration of TNF-α in a sample was derived by conversion according to the standard curve.
Calculation of inhibition rate: Inhibition rate %=[(mean value of TNF-α concentration in positive control well−mean value of TNF-α concentration in sample well)/(mean value of TNF-α concentration in positive control well−mean value of TNF-α concentration in negative control well)]×100%, wherein the positive control well was a well without a compound (DMSO-treated well), and the negative control well was a culture medium well.
Dose response curve fitting: Log(inhibitor) vs. response−Variable slope (four parameters) in GraphPad Prism 6 was used for fitting equation analysis of the compound concentration and the corresponding inhibition rate, and the curve was fitted to obtain the IC50 value of the compound. The fitting calculation equation was Y=Bottom+(Top−Bottom)/(1+10^((Log IC50−X)*HillSlope)).

T2 sequence (Q16539 whole entry): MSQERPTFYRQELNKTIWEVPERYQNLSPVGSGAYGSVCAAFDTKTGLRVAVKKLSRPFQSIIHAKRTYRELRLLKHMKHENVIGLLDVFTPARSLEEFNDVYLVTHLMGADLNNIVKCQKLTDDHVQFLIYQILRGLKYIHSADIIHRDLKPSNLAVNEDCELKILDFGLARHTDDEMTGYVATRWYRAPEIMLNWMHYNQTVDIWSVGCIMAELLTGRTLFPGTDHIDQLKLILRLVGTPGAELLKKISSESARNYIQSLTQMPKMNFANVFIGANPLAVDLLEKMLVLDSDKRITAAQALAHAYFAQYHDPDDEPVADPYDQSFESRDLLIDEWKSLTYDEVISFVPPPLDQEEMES
T1 sequence (Q16539 whole entry): as above
T1 sequence (P49137 whole entry): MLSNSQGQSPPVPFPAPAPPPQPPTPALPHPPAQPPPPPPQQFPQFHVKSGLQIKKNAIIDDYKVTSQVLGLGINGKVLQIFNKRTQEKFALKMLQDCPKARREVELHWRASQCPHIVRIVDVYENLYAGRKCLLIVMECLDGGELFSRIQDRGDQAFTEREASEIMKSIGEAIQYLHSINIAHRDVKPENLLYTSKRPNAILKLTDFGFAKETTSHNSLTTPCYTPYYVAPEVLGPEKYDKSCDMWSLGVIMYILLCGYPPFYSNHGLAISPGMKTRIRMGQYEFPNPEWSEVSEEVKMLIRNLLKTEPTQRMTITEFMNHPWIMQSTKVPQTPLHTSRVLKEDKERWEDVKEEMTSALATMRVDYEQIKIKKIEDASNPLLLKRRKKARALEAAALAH

Regarding `[2H]C([2H])(Oc1cc2n(c(=O)c1Cl)-c1cc(-c3ccnc(C(C)(C)O)n3)ncc1CCCC2)c1ncc(F)cc1F` [Example 1-1, (S)-11-Chloro-10-((3,5-difluoropyridin-2-yl)methoxy-d2)-2-(2-(2-hydroxypropan-2-yl)pyrimidin-4-yl)-5,6,7,8-tetrahydro-12H-dipyrido[1,2-a:3′,4′-g]azol-12-one], the IC50 at p38α/MK2 came out at 0.71 nM; in test [1], 77.4 nM; in the test with p-Hsp27 in U937 cells, 0.17 nM; with TNF-α in U937 cells it was 1.2 nM. Moreover, at p38α/MK2, the “Selectivity ratio (p38 IC50 / p38/MK2 IC50)” value is 109.
Regarding `[2H]C([2H])(Oc1cc2n(c(=O)c1Cl)-c1cc(-n3ccc(C(C)(C)O)n3)ncc1CCCC2)c1ncc(F)cc1F` [Example 2-1, (S)-11-chloro-10-((3,5-difluoropyridin-2-yl)methoxy-d2)-2-(3-(2-hydroxypropan-2-yl)-1H-pyrazol-1-yl)-5,6,7,8-tetrahydro-12H-dipyrido[1,2-a:3′,4′-g]azol-12-one], the IC50 at p38α/MK2 is 0.42 nM; with p-Hsp27 in U937 cells, 0.28 nM; in the test on TNF-α in U937 cells, 0.33 nM.
For the molecule `[2H]C([2H])(Oc1cc2n(c(=O)c1Cl)-c1cc(-n3cc(F)c(C(C)(C)NC(C)=O)n3)ncc1CCCC2)c1ncc(F)cc1F` [Example 3-1, (S)—N-(2-(1-(11-chloro-10-((3,5-difluoropyridin-2-yl)methoxy-d2)-12-carbonyl-6,7,8,12-tetrahydro-5H-dipyrido[1,2-a:3′,4′-g]azocin-2-yl)-4-fluoro-1H-pyrazol-3-yl)propan-2-yl)acetamide], the IC50 at p38α/MK2 was 0.18 nM; in the test on p-Hsp27 in U937 cells it was 0.15 nM; in the test on TNF-α in U937 cells, 0.18 nM.
In the case of `[2H]C([2H])(Oc1cc2n(c(=O)c1Cl)-c1cc(-c3ccnc(C(C)(C)NC(C)=O)n3)ncc1CCCC2)c1ncc(F)cc1F` [Example 4-1, (S)—N-(2-(4-(11-chloro-10-((3,5-difluoropyridin-2-yl)methoxy-d2)-12-carbonyl-6,7,8,12-tetrahydro-5H-dipyrido[1,2-a:3′,4′-g]azocin-2-yl)pyrimidin-2-yl)propan-2-yl)acetamide], the IC50 in the test with p-Hsp27 in U937 cells came to 0.35 nM; with TNF-α in U937 cells it was 1.2 nM.
As to `[2H]C([2H])(Oc1cc(C)n(-c2cc(-n3cccc(C(C)(C)NC(C)=O)c3=O)ncc2C)c(=O)c1Cl)c1ncc(F)cc1F` [Example 5-1, (S)—N-(2-(3″-chloro-4″-((3,5-difluoropyridin-2-yl)methoxy-d2)-5′,6″-dimethyl-2,2″-dicarbonyl-2H,2″H-[1,2′:4′,1″-terpyridin]-3-yl)propan-2-yl)acetamide], the figures for the IC50 (at p38α/MK2; in test [1]) were 0.79 nM and 526 nM, respectively. For the same molecule, the “Selectivity ratio (p38 IC50 / p38/MK2 IC50)” value on p38α/MK2 worked out at 666.
As for `[2H]C([2H])(Oc1cc2n(c(=O)c1Cl)-c1c(cnc(-n3ccc(C(C)(C)O)n3)c1F)CCCC2)c1ncc(F)cc1F` [Example 8-1, (R)-11-chloro-10-((3,5-difluoropyridin-2-yl)methoxy-d2)-1-fluoro-2-(3-(2-hydroxypropan-2-yl)-1H-pyrazol-1-yl)-5,6,7,8-tetrahydro-12H-dipyrido[1,2-a:3′,4′-g]azocin-12-one], the IC50 at p38α/MK2 was 0.25 nM; with p-Hsp27 in U937 cells, 0.22 nM; in the test on TNF-α in U937 cells, 0.19 nM.
For `[2H]C([2H])(Oc1cc(C)n(-c2cc(-n3cccc(C(C)(C)O)c3=O)ncc2Cl)c(=O)c1Cl)c1ncc(F)cc1F` [Example 10-1, (S)-3″,5′-dichloro-4″-((3,5-difluoropyridin-2-yl)methoxy-d2)-3-(2-hydroxypropan-2-yl)-6″-methyl-2H,2″H-[1,2′:4′,1″-terpyridine]-2,2″-dione], the IC50 on p38α/MK2 was determined as 0.13 nM; with p-Hsp27 in U937 cells, 0.13 nM; with TNF-α in U937 cells, 0.1 nM.
For `[2H]C([2H])(Oc1cc(C)n(-c2cc(-n3cccc(C(C)(C)O)c3=O)ncc2C)c(=O)c1Cl)c1ncc(F)cc1F` [Example 11-1, (S)-3″-chloro-4″-((3,5-difluoropyridin-2-yl)methoxy-d2)-3-(2-hydroxypropan-2-yl)-5′,6″-dimethyl-2H,2″H-[1,2′:4′,1″-terpyridine]-2,2″-dione], the IC50 on p38α/MK2 was 0.28 nM; in test [1], 96.9 nM; with p-Hsp27 in U937 cells, 0.1 nM; with TNF-α in U937 cells it was 0.21 nM. Also, the “Selectivity ratio (p38 IC50 / p38/MK2 IC50)” value on p38α/MK2 was 346.
Regarding `[2H]C([2H])(Oc1cc2n(c(=O)c1Cl)-c1cc(-c3ccnc(C(C)(C)O)n3)ncc1/C=C\CC2)c1ncc(F)cc1F` [Example 16-1, (S,Z)-11-chloro-10-((3,5-difluoropyridin-2-yl)methoxy-d2)-2-(2-(2-hydroxypropan-2-yl)pyrimidin-4-yl)-7,8-dihydro-12H-dipyrido[1,2-a:3′,4′-g]azocin-12-one], the IC50 on p38α/MK2 was found to be 0.49 nM; with p-Hsp27 in U937 cells, 0.28 nM; in the test on TNF-α in U937 cells it was 0.85 nM.
In the case of `[2H]C([2H])(Oc1cc2n(c(=O)c1Cl)-c1cc(-n3ccc(C(C)(C)O)n3)ncc1/C=C\CC2)c1ncc(F)cc1F` [Example 17-1, (S,Z)-11-chloro-10-((3,5-difluoropyridin-2-yl)methoxy-d2)-2-(3-(2-hydroxypropan-2-yl)-1H-pyrazol-1-yl)-7,8-dihydro-12H-dipyrido[1,2-a:3′,4′-g]azocin-12-one], the IC50 at p38α/MK2 amounted to 0.27 nM.
For `[2H]C([2H])(Oc1cc2n(c(=O)c1Cl)-c1cc(-n3cc(F)c(C(C)(C)NC(C)=O)n3)ncc1/C=C\CC2)c1ncc(F)cc1F` [Example 18-1, (S,Z)—N-(2-(1-(11-chloro-10-((3,5-difluoropyridin-2-yl)methoxy-d2)-12-carbonyl-8,12-dihydro-7H-dipyrido[1,2-a:3′,4′-g]azocin-2-yl)-4-fluoro-1H-pyrazol-3-yl)propan-2-yl)acetamide], the IC50 on p38α/MK2 was 0.12 nM.
As for `[2H]C([2H])(Oc1cc2n(c(=O)c1Cl)-c1cc(-n3cccc(C(C)(C)O)c3=O)ncc1/C=C\CC2)c1ncc(F)cc1F` [Example 19-1, (S,Z)-11-chloro-10-((3,5-difluoropyridin-2-yl)methoxy-d2)-2-(3-(2-hydroxypropan-2-yl)-2-carbonylpyridin-1(2H)-yl)-7,8-dihydro-12H-dipyrido[1,2-a:3′,4′-g]azocin-12-one], the IC50 at p38α/MK2 turned out to be 0.12 nM.
